Data on 13 compounds can be found in PubChem BioAssay (NCI).

Each structure is given as a SMILES string.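 Values below derive from 48-hour exposures of cells grown in 96-well plates, with endpoints linearly interpolated between the two concentrations bracketing the appropriate inhibition level. At the GI50, growth is halved. At the TGI there is no net growth.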 Where only a bound is given, the exact number is not on record here.

Some test systems named below: ACHN renal; HOP-62 NSCLC; MOLT-4 leukemia; OVCAR-3 ovarian; OVCAR-5 ovarian; RXF 393 renal; SF-295 CNS; SNB-75 CNS; SW-620 colon; NCI/ADR-RES ovarian.
Common to all, as to assay: NCI anticancer screen, dose series, 48 h

With `N.N.N.N.N.N#Cc1nn[n-]n1.[Cl-].[Co+3]`, the GI50 with ACHN renal, in the assay with HOP-62 NSCLC, in the assay with MOLT-4 leukemia, in the assay on OVCAR-3 ovarian, with OVCAR-5 ovarian and with RXF 393 renal was greater than 100 µM in each case. In addition, the GI50 with SF-295 CNS, in the assay on SNB-75 CNS and in the assay on SW-620 colon was greater than 100 µM throughout. Further, the TGI in the assay with ACHN renal, with HOP-62 NSCLC, in the assay with MOLT-4 leukemia, with OVCAR-3 ovarian, with OVCAR-5 ovarian and in the assay with RXF 393 renal was greater than 100 µM throughout. Besides, the TGI in the assay on SF-295 CNS, in the assay on SNB-75 CNS and in the assay on SW-620 colon was greater than 100 µM in each case.
For the compound `Cn1cnc([N+](=O)[O-])c1Sc1nc2ccccc2o1`, the TGI in the assay with ACHN renal is 24.9 µM; in the assay with HOP-62 NSCLC it was greater than 94.4 µM; in the assay on MOLT-4 leukemia, 8.99 µM; in the assay on OVCAR-3 ovarian it was 14.7 µM; with OVCAR-5 ovarian it was 19.4 µM; in the assay with RXF 393 renal, 22.1 µM. Besides, the TGI in the assay on SF-295 CNS came out at 74.9 µM; in the assay on SNB-75 CNS, 32.9 µM; in the assay with SW-620 colon, 14.3 µM.
`O=c1c2ccccc2nc2n1CCc1c-2[nH]c2cc3c(cc12)OCO3`: the TGI with ACHN renal, in the assay with HOP-62 NSCLC, in the assay on MOLT-4 leukemia, with NCI/ADR-RES ovarian, with OVCAR-5 ovarian and with SF-295 CNS was greater than 25 µM throughout. Besides, the TGI in the assay on SNB-75 CNS was 22 µM; with SW-620 colon it was greater than 25 µM.
Take `O=C(Nc1ccccc1)n1cc(-c2ccccn2)c(N2CCOCC2)n1`: the TGI was greater than 100 µM with ACHN renal; greater than 100 µM in the assay on HOP-62 NSCLC; greater than 100 µM in the assay on MOLT-4 leukemia; 29.5 µM in the assay on OVCAR-3 ovarian; 28.2 µM in the assay with SF-295 CNS; 43.7 µM in the assay with SNB-75 CNS. Also, the TGI in the assay on SW-620 colon was greater than 100 µM.
On to `C/C=C(\C)c1cc(=O)c2c(C)cc3c(c2o1)C(OC)(OC(C)=O)c1c(O)c(C2CC(C)(N(C)C)C(OC(C)=O)C(C)O2)cc(C2CC(N(C)C)C(OC(C)=O)C(C)O2)c1C3=O` (stereo unspecified), for which the TGI in the assay on ACHN renal was 1.52 µM; with HOP-62 NSCLC it was greater than 100 µM; in the assay with MOLT-4 leukemia, 10.3 µM; with NCI/ADR-RES ovarian it was greater than 25.7 µM; in the assay on OVCAR-3 ovarian it was greater than 41.8 µM; with OVCAR-5 ovarian it was 9.75 µM. Also, the TGI in the assay with SF-295 CNS turned out to be 14.6 µM; in the assay with SNB-75 CNS it was 6.44 µM; with SW-620 colon, 4.94 µM.
As for `CCC(C)C(=O)O[C@H]1C(=O)O[C@@H]2C[C@H]3C(C)=CC(=O)[C@@H](O)[C@]3(C)[C@H]3[C@@H](O)[C@H](O)[C@@]4(C)OC[C@]32[C@@H]14` (stereo partly specified), the TGI was 0.566 µM in the assay on ACHN renal; 0.267 µM in the assay with MOLT-4 leukemia; 0.0906 µM with OVCAR-3 ovarian; 0.0942 µM in the assay on OVCAR-5 ovarian; less than 0.0345 µM in the assay with RXF 393 renal; less than 0.0299 µM in the assay on SNB-75 CNS. In addition, in the assay on SW-620 colon, the TGI amounted to 0.28 µM.
For `Cc1ccccc1C=NC12CC3CC(CC(C3)C1)C2`, the TGI with ACHN renal, with HOP-62 NSCLC, in the assay with MOLT-4 leukemia, in the assay on OVCAR-3 ovarian, in the assay with OVCAR-5 ovarian and in the assay with RXF 393 renal was greater than 100 µM in each case. Also, the TGI in the assay on SF-295 CNS, in the assay on SNB-75 CNS and in the assay on SW-620 colon was greater than 100 µM throughout.
As for `N#CCCN(C1=NN(C(=O)CC(=O)Nc2ccc(Cl)cc2)C(c2ccccc2)C1)c1ccc(Cl)cc1` (stereo unspecified), the TGI in the assay with ACHN renal, in the assay on HOP-62 NSCLC, in the assay on MOLT-4 leukemia, in the assay with OVCAR-3 ovarian, in the assay with OVCAR-5 ovarian and in the assay with RXF 393 renal was greater than 100 µM each time. Further, the TGI with SF-295 CNS, in the assay on SNB-75 CNS and with SW-620 colon was greater than 100 µM in each case.
Regarding `O=C(CCC(=O)Nc1ccc(Cl)cc1)CC(=O)c1ccc2ccccc2c1`, the TGI in the assay on ACHN renal, with HOP-62 NSCLC, with MOLT-4 leukemia, in the assay with OVCAR-3 ovarian, with OVCAR-5 ovarian and in the assay on RXF 393 renal was greater than 100 µM throughout. The TGI in the assay with SF-295 CNS, in the assay on SNB-75 CNS and in the assay with SW-620 colon was greater than 100 µM in each case.
`Cc1cc2nc3c(=O)[nH]c(=O)nc-3n(CC(O)C(O)C(O)CO)c2cc1N` (stereo unspecified): the TGI in the assay with ACHN renal, in the assay on MOLT-4 leukemia, with OVCAR-3 ovarian, in the assay on SF-295 CNS, with SNB-75 CNS and with SW-620 colon was greater than 100 µM in each case.
On to `Cc1ccc2nc(Sc3c([N+](=O)[O-])ncn3C)[nH]c2c1`, for which the TGI in the assay with ACHN renal was greater than 100 µM; with HOP-62 NSCLC, greater than 100 µM; in the assay with MOLT-4 leukemia, 31.1 µM; with OVCAR-3 ovarian it was 56.7 µM; in the assay on OVCAR-5 ovarian, greater than 100 µM; in the assay with RXF 393 renal it was 39.5 µM. Besides, the TGI was greater than 100 µM with SF-295 CNS, 89.3 µM in the assay with SNB-75 CNS and greater than 100 µM in the assay with SW-620 colon.
For the compound `Cc1cc(Cl)ccc1NC(=O)CC1SC(=NC(=O)c2ccccc2Cl)NC1=O` (stereo unspecified), the TGI was 30.8 µM with ACHN renal; 6.65 µM with MOLT-4 leukemia; 36.3 µM in the assay with OVCAR-3 ovarian; 84 µM in the assay on OVCAR-5 ovarian; 35.1 µM in the assay on RXF 393 renal; greater than 100 µM with SF-295 CNS. The values for the TGI with SNB-75 CNS and with SW-620 colon were 35 µM and 32.3 µM, respectively.
Regarding `CN1CCN(Cc2ccc(NC(=O)c3cncc(C#Cc4c(N)ncc5c(F)cccc45)c3)cc2C(F)(F)F)CC1`, the GI50 in the assay on ACHN renal is 0.708 µM; in the assay with HOP-62 NSCLC it was 1.28 µM; in the assay with MOLT-4 leukemia, 0.57 µM; in the assay with OVCAR-3 ovarian, 0.828 µM; in the assay on OVCAR-5 ovarian it was 0.794 µM; in the assay with RXF 393 renal, 0.799 µM. For the same compound, the GI50 in the assay on SF-295 CNS is 0.89 µM; in the assay with SNB-75 CNS, 0.827 µM; in the assay with SW-620 colon, 0.454 µM. The TGI with ACHN renal came out at 1.36 µM; in the assay with HOP-62 NSCLC, 3.87 µM; in the assay with MOLT-4 leukemia it was 1.5 µM; in the assay on OVCAR-3 ovarian, 1.53 µM; in the assay on OVCAR-5 ovarian, 1.56 µM; in the assay with RXF 393 renal, 1.54 µM. Moreover, the TGI in the assay on SF-295 CNS amounted to 1.77 µM; with SNB-75 CNS it was 1.55 µM; with SW-620 colon, 1.16 µM.
